Where a SMILES comes first, the peptide text is derived from it. The star is where a group is joined. Cbz = O=C(OCc1ccccc1)*

This assay relates to RAW264.7. The assay is described as follows: Anti-inflammatory activity against mouse RAW264.7 cells assessed as inhibition of LPS-induced NO production pretreated with compound for 2 hrs followed by LPS stimulation for 12 hrs by Griess reagent based analysis. Format: functional, cell-based.
On to `O=C1C[C@@H](O)[C@]23Oc4cccc5c4[C@](CC[C@@H]5O)(Oc4ccc(O)c1c42)O3`, for which the IC50 (in general, the concentration at which inhibition is half-maximal) amounted to 12.8 µM.
The result for `Oc1ccc2c3c1[C@@H](O)[C@H]1O[C@H]1[C@]31Oc3cccc4c3[C@](CC[C@@H]4O)(O2)O1` reads 5.9 µM; that for `Cc1cc2c(c(=O)o1)[C@@H]1[C@H](O2)[C@H](O)c2c(O)ccc3c2[C@@]12Oc1cccc4c1[C@](C=C[C@@H]4O)(O3)O2`, 8.5 µM; that for `Cc1cc2c(c(=O)o1)[C@@H]1[C@H](O2)[C@H](O)c2c(O)ccc3c2[C@@]12Oc1cccc4c1[C@](CC[C@@H]4O)(O3)O2`, 4.8 µM.
In the case of `CC(C)C[C@@H](C=O)NC(=O)[C@H](CC(C)C)NC(=O)[C@H](CC(C)C)NC(=O)OCc1ccccc1` [MG-132] (Cbz-Leu-Leu-Leu-aldehyde) it was 2.6 µM.

The values are drawn from ChEMBL document CHEMBL5233286, “Lasiodiplodiapyrones A and B, Pyrone-Preussomerin Adducts with Highly Strained Polycyclic Ring Systems from Lasiodiplodia pseudotheobromae” (J Nat Prod, 2023).
